For one test, the target named is T1, human PTP1B (Homo sapiens, UniProt P18031).
T1 construct: human PTP1B (amino acid residues 1-321); made in house; host or cells: E. coli BL21(DE3)
T1 sequence (P18031 1-321): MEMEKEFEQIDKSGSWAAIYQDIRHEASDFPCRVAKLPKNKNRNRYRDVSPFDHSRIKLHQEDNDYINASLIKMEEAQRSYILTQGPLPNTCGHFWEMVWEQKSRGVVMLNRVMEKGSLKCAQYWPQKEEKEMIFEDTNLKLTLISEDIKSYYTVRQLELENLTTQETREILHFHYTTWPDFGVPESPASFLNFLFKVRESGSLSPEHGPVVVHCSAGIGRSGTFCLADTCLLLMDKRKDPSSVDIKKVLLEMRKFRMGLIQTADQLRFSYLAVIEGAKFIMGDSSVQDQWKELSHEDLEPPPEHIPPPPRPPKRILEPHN
As to the kind of experiment: PTP1B assay, pNPP hydrolysis, assayed exactly as for PTP1. The format is biochemical. The note with it: for inhibition at 1 µM / inhibition at 10 µM / inhibition at 100 µM: Table 2, read-out: PTP1B Inhib PTP1B. % Inhib; for PTP1B Inhib PTP1B. % Inhib: Table 2. The text has this: The equivalent construct of human PTP1B (amino acid residues 1-321) (cloned from a human placental library), without the GST tag and thrombin cleavage site, was inserted into a pMB replicon and transformed into E. coli BL21(DE3), a strain containing a chromosomal copy of the gene for T7 RNA polymerase under control of a lacUV5 promoter. Expression of PTP1B was induced with isopropyl thiogalactose and the soluble protein was purified by ion exchange, hydrophobic interaction and gel exclusion chromatography for use in the assay to identify PTP inhibitors.
PTP1 activity is measured using either p-nitrophenol phosphate (pNPP) or a triphosphopeptide (that matches residues 1142 through 1153 of the β-subunit and the insulin receptor) as substrate in a 96-well microtiter plate format. An assay pH of 7.2 is used for standard assays (measured 405=9800 at pH 7.2).
Human PTP1B, which is highly homologous to rat PTP1, was assayed exactly as described above for PTP1.
Standard assays are conducted at room temperature in a total volume of 0.2 ml that contains Hepes buffer (50 mM, pH 7.2), NaCl (50 mM), EDTA (1 mM), DTT (1 mM), bovine serum albumin (1 mg/ml), pNPP (1 mM) and PTP1 (35 ng/ml). Compounds (2 μl of 10 mM solutions) are pipetted into wells of microtiter plates followed by 198 μl of premixed reaction mix (with PTP1 and pNPP added immediately before use). The rate of change in A405 is recorded for 60 min. Two wells on each plate contain DMSO controls and two wells contain sodium orthovanadate (1 mM) which inhibits PTP1-catalyzed hydrolysis of pNPP completely. Data are expressed as percent inhibition relative to the average of the DMSO controls measured on the same microtiter plate.

The target in a further test is T2, rat PTP1 (Rattus norvegicus, UniProt P20417).
T2 construct: a C-terminal truncation of rat PTP1 (amino acid residues 1-322); GST (N, cleaved yes); made in house; host or cells: E. coli strain TG-1 (pGEX-2T)
T2 sequence (P20417 1-322): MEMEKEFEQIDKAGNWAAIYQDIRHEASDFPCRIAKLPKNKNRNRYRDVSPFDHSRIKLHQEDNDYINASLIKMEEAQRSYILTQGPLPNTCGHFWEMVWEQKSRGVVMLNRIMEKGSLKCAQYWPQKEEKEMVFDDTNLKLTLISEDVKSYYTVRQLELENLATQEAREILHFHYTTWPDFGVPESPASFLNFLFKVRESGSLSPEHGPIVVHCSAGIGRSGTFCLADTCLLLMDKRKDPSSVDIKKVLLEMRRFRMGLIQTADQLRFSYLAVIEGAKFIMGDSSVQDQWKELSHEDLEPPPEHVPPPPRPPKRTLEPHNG
Put plainly: PTP1 assay, pNPP hydrolysis (rate of change in A405). The format is biochemical. The essentials: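 Thrombin-cleaved rat PTP1 residues 1-322 (35 ng/ml) with 1 mM pNPP in 50 mM Hepes pH 7.2, NaCl, EDTA, DTT, BSA at room temperature. A405 rate followed 60 min. Compounds added as 10 mM solutions; percent inhibition relative to plate DMSO controls, 1 mM orthovanadate as full-inhibition control.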

[1] abbreviates: Conc 1 uM, pNPP hydrolysis, Table 2, read-out: PTP1 Inhib PTP1N. % Inhib.
The mark [2] stands for this setting: Conc 10 uM, pNPP hydrolysis, Table 2, read-out: PTP1 Inhib PTP1N. % Inhib.
Setting [3] is: Conc 100 uM, pNPP hydrolysis, Table 2, read-out: PTP1 Inhib PTP1N. % Inhib.
Where [4] appears, read: Conc 1 uM, pNPP hydrolysis, Table 1, read-out: PTP1 Inhib % Inhib.
Setting [5] is: Conc 10 uM, pNPP hydrolysis, Table 1, read-out: PTP1 Inhib % Inhib.
Setting [6] is: Conc 100 uM, pNPP hydrolysis, Table 1, read-out: PTP1 Inhib % Inhib.
The mark [7] stands for this setting: inhibition of pNPP-hydrolysis, compound concentration 1 μM, read-out: % Inhibition.
Setting [8] is: inhibition of pNPP-hydrolysis, compound concentration 10 μM, read-out: % Inhibition.
[9] abbreviates: inhibition of pNPP-hydrolysis, compound concentration 100 μM, read-out: % Inhibition.

pKi: −log10 of the molar value. Where two headings read alike, the source gives them in different places.

For `CCCCCNC(=O)[C@H](Cc1ccc(N(CC(=O)O)CC(=O)O)cc1)NC(=O)[C@H](Cc1ccccc1)NC(=O)OC(C)(C)C`, the inhibition at 1 µM at human PTP1B (Conc 1 uM) is 3%. Further, the inhibition at 10 µM at human PTP1B (Conc 10 uM) was 6%. In addition, the inhibition at 100 µM at human PTP1B (Conc 100 uM) worked out at 29%.
Turning to `CCCCCNC(=O)C(Cc1ccc(OC(COO)COO)cc1)NC(=O)N(Cc1ccccc1)Cc1ccccc1` (stereo not drawn), on human PTP1B (Conc 1 uM), the “PTP1B Inhib PTP1B. % Inhib” value is 14% and the inhibition at 1 µM amounted to 18%. Also, on human PTP1B (Conc 10 uM), the “PTP1B Inhib PTP1B. % Inhib” value amounted to 59% and the inhibition at 10 µM stood at 65%. Further, at human PTP1B (Conc 100 uM), the “PTP1B Inhib PTP1B. % Inhib” value is given as 93% and the inhibition at 100 µM is 95%.
For the compound `CCCCCNC(=O)C(Cc1ccc(OC(COO)COO)cc1)NC(=O)C(Cc1ccccc1)NS(=O)OCc1ccccc1` (stereo not drawn), on human PTP1B (Conc 1 uM), the inhibition at 1 µM was 4%. The inhibition at 10 µM at human PTP1B (Conc 10 uM) worked out at 16%. Further, the inhibition at 100 µM on human PTP1B (Conc 100 uM) amounted to 62%.
For `CC(C)(C)OC(=O)N[C@@H](Cc1ccccc1)C(=O)N[C@@H](Cc1ccc(OCC(=O)O)c(C(=O)O)c1)C(=O)NCCCCc1ccccc1` [drawing 221], the inhibition at 1 µM at human PTP1B (Conc 1 uM) was 64%. In addition, the inhibition at 10 µM at human PTP1B (Conc 10 uM) was 93%. For the same compound, the inhibition at 100 µM at human PTP1B (Conc 100 uM) turned out to be 98%.
For `CCCCCNC(=O)C(Cc1ccc(OCCOO)c(COO)c1)NC(=O)C(Cc1ccccc1)NC(=O)Cc1ccc(C(F)(F)F)cc1` (stereo not drawn) the same measures were 39%, 85% and 98%.
`CCCCCNC(=O)C(Cc1ccc(OC(COO)COO)cc1)NC(=O)C(CCSC)NC(=O)OC(C)(C)C` (stereo not drawn): the inhibition at 1 µM on human PTP1B (Conc 1 uM) is 5%. On human PTP1B (Conc 10 uM), the “PTP1B Inhib PTP1B. % Inhib” value was 30% and the inhibition at 10 µM was 25%. Besides, on human PTP1B (Conc 100 uM), the “PTP1B Inhib PTP1B. % Inhib” value was 82% and the inhibition at 100 µM stood at 74%.
Regarding `CCCCCNC(=O)C(Cc1ccc(OC(COO)COO)cc1)NC(=O)C(Cc1ccc(OCc2ccccc2)cc1)N(C)C(=O)OC(C)(C)C` (stereo not drawn), the inhibition at 1 µM at rat PTP1 (setting [1]) amounted to 0%. For the same compound, at rat PTP1 (setting [2]), the inhibition at 10 µM is 0%. The inhibition at 100 µM at rat PTP1 (setting [3]) stood at 32%.
Take `CCCCCCNC(=O)[C@H](Cc1ccc(OC(C(=O)O)C(=O)O)cc1)NC(=O)CCC(=O)O`: the inhibition at 1 µM at rat PTP1 (setting [4]) came out at 3%. Further, the inhibition at 10 µM on rat PTP1 (setting [5]) was 17%. Moreover, the inhibition at 100 µM on rat PTP1 (setting [6]) was 74%.
As for `O=C(O)COc1ccc(C[C@H](NC(=O)c2ccc(Cl)cc2)C(=O)NCCCCc2ccccc2)cc1C(=O)O` [Example 154-9, 2-(carboxymethoxy)-5-{(2S)-2-[(4-chlorobenzoyl)amino]-3-oxo-3-[(4-phenylbutyl)amino]propyl}benzoic acid], the inhibition at 1 µM at rat PTP1 (setting [7]) amounted to 37%. On rat PTP1 (setting [8]), the inhibition at 10 µM amounted to 85%. In addition, the inhibition at 100 µM at rat PTP1 (setting [9]) stood at 97%.
For the compound `O=C(O)COc1ccc(C[C@H](NS(=O)(=O)c2ccccc2)C(=O)NCCCOc2ccccc2)cc1C(=O)O` [Example 156-16, 2-(carboxymethoxy)-5-{(2S)-3-oxo-3-[(3-phenoxypropyl)amino]-2-[(phenylsulfonyl)amino]propyl}benzoic acid], the inhibition at 1 µM on rat PTP1 (setting [7]) came to 20%. Also, on rat PTP1 (setting [8]), the inhibition at 10 µM was found to be 72%. On rat PTP1 (setting [9]), the inhibition at 100 µM was found to be 95%.
For the compound `CCCCCNC(=O)C(Cc1ccc(OC(C(=O)O)C(=O)O)cc1)NC(=O)C(CC(=O)O)NC(=O)OC(C)(C)C` (stereo not drawn), the inhibition at 1 µM on rat PTP1 (setting [4]) turned out to be 16%. The inhibition at 10 µM on rat PTP1 (setting [5]) was 62%. Further, the inhibition at 100 µM on rat PTP1 (setting [6]) worked out at 94%.
On to `O=C(O)COc1ccc(C[C@H](NC(=O)c2ccoc2)C(=O)NCCCCc2ccc(Cl)cc2)cc1C(=O)O` [Example 154-26, 2-(carboxymethoxy)-5-[(2S)-3-{[4-(4-chlorophenyl)butyl]amino}-2-(3-furoylamino)-3-oxopropyl]benzoic acid], for which, at rat PTP1 (setting [7]), the inhibition at 1 µM came out at 30%. Also, the inhibition at 10 µM at rat PTP1 (setting [8]) is 78%. Moreover, at rat PTP1 (setting [9]), the inhibition at 100 µM came to 97%.
Consider `CCCCCNC(=O)[C@H](Cc1ccc(OC(C(=O)O)C(=O)O)cc1)NC(=O)C1C(C(=O)O)[C@@H]2CC[C@@H]1C2` (stereo partly drawn), for which, at rat PTP1 (setting [4]), the inhibition at 1 µM stood at 0%. For the same compound, at rat PTP1 (setting [5]), the inhibition at 10 µM stood at 4%. At rat PTP1 (setting [6]), the inhibition at 100 µM turned out to be 37%.
Take `O=C(O)CCC(=O)NC(Cc1ccc(C(=O)c2ccccc2)cc1)C(=O)NCCc1ccc(OC(COO)COO)cc1` (stereo not drawn): on rat PTP1 (setting [1]), the inhibition at 1 µM was determined as 1%. The inhibition at 10 µM on rat PTP1 (setting [2]) worked out at 13%. Moreover, on rat PTP1 (setting [3]), the inhibition at 100 µM stood at 60%.
In the same order, the values of `CCCCCNC(=O)C(Cc1ccc(OC(COO)COO)cc1)NC(=O)C(Cc1ccc(C(=O)c2ccccc2)cc1)NC(=O)CCC(=O)O` (stereo not drawn) [drawing 139] are 4%, 13% and 54%.
On to `O=C(O)COc1ccc(C[C@H](NS(=O)(=O)/C=C/c2ccccc2)C(=O)NCCCCc2ccc(Cl)cc2)cc1C(=O)O` [Example 156-7, 2-(carboxymethoxy)-5-[(2S)-3-{[4-(4-chlorophenyl)butyl]amino}-3-oxo-2-({[(E)-2-phenylethenyl]sulfonyl}amino)propyl]benzoic acid], for which the inhibition at 1 µM on rat PTP1 (setting [7]) came to 18%. The inhibition at 10 µM at rat PTP1 (setting [8]) was 69%. For the same compound, on rat PTP1 (setting [9]), the inhibition at 100 µM was 95%.
As to `CCCCCNC(=O)[C@H](Cc1ccc(OC(C(=O)O)C(=O)O)cc1)NC(=O)C(CC(=O)O)NC(=O)OC(C)(C)C` (stereo partly drawn), the inhibition at 1 µM at rat PTP1 (setting [4]) turned out to be 13%. In addition, at rat PTP1 (setting [5]), the inhibition at 10 µM came out at 53%. Also, the inhibition at 100 µM on rat PTP1 (setting [6]) was found to be 90%.
Take `CC(C)(C)OC(=O)N[C@@H](Cc1ccccc1)C(=O)N[C@@H](Cc1ccc(OCC(=O)O)c(C(=O)O)c1)C(=O)NOCCCc1ccccc1` [Example 157-28, 5-{(2S)-2-({(2S)-2-[(tert-Butoxycarbonyl)amino]-3-phenylpropanoyl}amino)-3-oxo-3-[(3-phenylpropoxy)amino]propyl}-2-(carboxymethoxy)benzoic Acid]: the pKi on rat PTP1 (calculated from IC50-values obtained from a dose-response curve using the inhibition assay) is 6.40.
As for `CCCCCNC(=O)C(Cc1ccc(OC(COO)COO)cc1)NC(=O)CCC(=O)O` (stereo not drawn) [drawing 101], the “PTP1 Inhib % Inhib” value at rat PTP1 (Conc 1 uM, pNPP hydrolysis, Table 1) is listed as 3%; at rat PTP1 (Conc 10 uM, pNPP hydrolysis, Table 1), 4%; at rat PTP1 (Conc 100 uM, pNPP hydrolysis, Table 1), 39%.
For the compound `CC(C)(C)OC(=O)N[C@@H](Cc1ccccc1)C(=O)N[C@@H](Cc1ccc(OCC(=O)O)c(C(=O)O)c1)C(=O)NCCO` [Example 157-3, 5-{(2S)-2-({(2S)-2-[(tert-Butoxycarbonyl)amino]-3-phenylpropanoyl}amino)-3-[(2-hydroxyethyl)amino]-3-oxopropyl}-2-(carboxymethoxy)benzoic], the “% Inhibition” value at rat PTP1 (inhibition of pNPP-hydrolysis, compound concentration 1 μM) is reported as 22%; at rat PTP1 (inhibition of pNPP-hydrolysis, compound concentration 10 μM) it was 72%; at rat PTP1 (inhibition of pNPP-hydrolysis, compound concentration 100 μM), 94%.
Take `CCCCCNC(=O)C(Cc1ccc(OC(COO)COO)cc1)NC(=O)NC(CCC(=O)O)C(=O)O` (stereo not drawn): the inhibition at 1 µM on rat PTP1 (setting [4]) turned out to be 17%. The inhibition at 10 µM at rat PTP1 (setting [5]) was determined as 64%. The inhibition at 100 µM at rat PTP1 (setting [6]) amounted to 94%.

(Values after US6410585B1, “Inhibitors of protein tyrosine phosphatase” (priority 1997, dated 2002).)
